In experiment [1] the test system is Pseudomonas aeruginosa. The experiment can be described thus: Antimicrobial activity against Pseudomonas aeruginosa isolate 2858 obtained from cystic fibrosis patient by disk diffusion method. The class given is functional. For orientation: In agar diffusion tests the substance spreads into inoculated agar from a disc or well.
The test system of experiment [2] is Pseudomonas aeruginosa. Put plainly: Antimicrobial activity against ampicillin- and ticarcillin-resistant Pseudomonas aeruginosa FE60 mutant transformed with pAGH97 carrying mexXY F1018L mutant by twofold macrodilution method. The class given is functional.
The test system of experiment [3] is Pseudomonas aeruginosa. The experiment can be described thus: Antimicrobial activity against Pseudomonas aeruginosa isolate 2716 obtained from cystic fibrosis patient by agar dilution method. (In general: In agar dilution the substance is mixed into plates at graded concentrations.)
The test system of experiment [4] is Pseudomonas aeruginosa. The experiment can be described thus: Antimicrobial activity against Pseudomonas aeruginosa mutGR1 overexpressing mexXY mutant by twofold macrodilution method. The class given is functional.
Experiment [5] has as its system Pseudomonas aeruginosa. The experiment can be described thus: Antimicrobial activity against Pseudomonas aeruginosa isolate 2729 obtained from cystic fibrosis patient by disk diffusion method. The class given is functional.
For experiment [6], the system named is Pseudomonas aeruginosa. Put plainly: Antimicrobial activity against ampicillin- and ticarcillin-resistant Pseudomonas aeruginosa FE60 mutant transformed with pAGH97 carrying mexXY operon by twofold macrodilution method. Format: functional.
Experiment [7] relates to Pseudomonas aeruginosa. The experiment can be described thus: Antimicrobial activity against Pseudomonas aeruginosa isolate 2804 obtained from cystic fibrosis patient by disk diffusion method. The class given is functional.
In experiment [8] the test system is Pseudomonas aeruginosa. Put plainly: Antimicrobial activity against Pseudomonas aeruginosa isolate 2721 obtained from cystic fibrosis patient by agar dilution method.
In experiment [9] the test system is Pseudomonas aeruginosa. Put plainly: Antimicrobial activity against Pseudomonas aeruginosa isolate 615R obtained from cystic fibrosis patient by disk diffusion method. The class given is functional.
Experiment [10] concerns Pseudomonas aeruginosa. The experiment can be described thus: Antimicrobial activity against Pseudomonas aeruginosa isolate 3066 obtained from cystic fibrosis patient by disk diffusion method. The class given is functional.
Experiment [11] concerns Pseudomonas aeruginosa. Put plainly: Antimicrobial activity against Pseudomonas aeruginosa isolate 2998 obtained from cystic fibrosis patient by agar dilution method.
Experiment [12] relates to Pseudomonas aeruginosa. The experiment can be described thus: Antimicrobial activity against Pseudomonas aeruginosa isolate 2933 obtained from cystic fibrosis patient by disk diffusion method. The class given is functional.
For experiment [13], the system named is Pseudomonas aeruginosa. Put plainly: Antimicrobial activity against ampicillin- and ticarcillin-resistant Pseudomonas aeruginosa FE60 mutant transformed with pAGH97 carrying mexXY F29S mutant by twofold macrodilution method. The class given is functional.
Experiment [14] concerns Pseudomonas aeruginosa. Put plainly: Antimicrobial activity against Pseudomonas aeruginosa isolate 2715 obtained from cystic fibrosis patient by agar dilution method.
Experiment [15] deals with Pseudomonas aeruginosa. The experiment can be described thus: Antimicrobial activity against Pseudomonas aeruginosa isolate 3020R obtained from cystic fibrosis patient by agar dilution method.
Experiment [16] has as its system Pseudomonas aeruginosa. Put plainly: Antimicrobial activity against Pseudomonas aeruginosa isolate 615S obtained from cystic fibrosis patient by disk diffusion method. The class given is functional.
The test system of experiment [17] is Pseudomonas aeruginosa. Put plainly: Antimicrobial activity against Pseudomonas aeruginosa isolate 2933 obtained from cystic fibrosis patient.
For experiment [18], the system named is Pseudomonas aeruginosa. The experiment can be described thus: Antimicrobial activity against Pseudomonas aeruginosa isolate 3020S obtained from cystic fibrosis patient by disk diffusion method. The class given is functional.
Experiment [19] deals with Pseudomonas aeruginosa. Put plainly: Antimicrobial activity against Pseudomonas aeruginosa isolate 615R with inactivated mexB gene obtained from cystic fibrosis patient by disk diffusion method.
In experiment [20] the test system is Pseudomonas aeruginosa. Put plainly: Antimicrobial activity against Pseudomonas aeruginosa isolate 3066 obtained from cystic fibrosis patient.
For experiment [21], the system named is Pseudomonas aeruginosa. Put plainly: Antimicrobial activity against mexXY operon inactivated Pseudomonas aeruginosa PAO1 by twofold macrodilution method. The class given is functional.
Experiment [22] deals with Pseudomonas aeruginosa. The experiment can be described thus: Antimicrobial activity against mexB gene inactivated Pseudomonas aeruginosa isolate 2721 obtained from cystic fibrosis patient by agar dilution method.
In experiment [23] the test system is Pseudomonas aeruginosa. The experiment can be described thus: Antimicrobial activity against Pseudomonas aeruginosa isolate 2729 obtained from cystic fibrosis patient.
Experiment [24] deals with Pseudomonas aeruginosa. The experiment can be described thus: Antimicrobial activity against mexB gene inactivated Pseudomonas aeruginosa isolate 2715 obtained from cystic fibrosis patient by agar dilution method.
The test system of experiment [25] is Pseudomonas aeruginosa. Put plainly: Antimicrobial activity against Pseudomonas aeruginosa PAO1 by twofold macrodilution method. The class given is functional.
In experiment [26] the test system is Pseudomonas aeruginosa. Put plainly: Antimicrobial activity against mexB gene inactivated Pseudomonas aeruginosa isolate 3020R obtained from cystic fibrosis patient by agar dilution method.
Experiment [27] relates to Pseudomonas aeruginosa. Put plainly: Ratio of MIC for mexB deficient Pseudomonas aeruginosa FB1 mutant to Pseudomonas aeruginosa PAO1. Format: functional.
In experiment [28] the test system is Pseudomonas aeruginosa. Put plainly: Antimicrobial activity against mexB gene inactivated Pseudomonas aeruginosa isolate 2716 obtained from cystic fibrosis patient by agar dilution method.
Experiment [29] deals with Pseudomonas aeruginosa. The experiment can be described thus: Antimicrobial activity against mexB gene inactivated Pseudomonas aeruginosa isolate 3020S obtained from cystic fibrosis patient by agar dilution method.
Experiment [30] concerns Pseudomonas aeruginosa. The experiment can be described thus: Antimicrobial activity against Pseudomonas aeruginosa isolate 2998 obtained from cystic fibrosis patient.
In experiment [31] the test system is Pseudomonas aeruginosa. Put plainly: Antimicrobial activity against Pseudomonas aeruginosa isolate 2998 expressing inactivated mexB gene by disk diffusion method. Format: functional.
Experiment [32] concerns Pseudomonas aeruginosa. Put plainly: microbe, parasite or virus in culture. The following applies: isolate 3020S.
Description: Antimicrobial activity against Pseudomonas aeruginosa isolate 3020S expressing inactivated mexB gene by disk diffusion method
In experiment [33] the test system is Pseudomonas aeruginosa. The experiment can be described thus: microbe, parasite or virus in culture. The following applies: isolate 3020R.
Description: Antimicrobial activity against Pseudomonas aeruginosa isolate 3020R expressing inactivated mexB gene by disk diffusion method
Experiment [34] concerns Pseudomonas aeruginosa. The experiment can be described thus: microbe, parasite or virus in culture. The following applies: isolate 2729.
Description: Antimicrobial activity against Pseudomonas aeruginosa isolate 2729 expressing inactivated mexB gene by disk diffusion method
Experiment [35] relates to Pseudomonas aeruginosa. Put plainly: microbe, parasite or virus in culture. The following applies: isolate 3066.
Description: Antimicrobial activity against Pseudomonas aeruginosa isolate 3066 expressing inactivated mexB gene by disk diffusion method
Experiment [36] concerns Pseudomonas aeruginosa. Put plainly: Antimicrobial activity against Pseudomonas aeruginosa isolate 2721 expressing inactivated mexB gene by disk diffusion method. Format: functional.
Experiment [37] deals with Pseudomonas aeruginosa. Put plainly: microbe, parasite or virus in culture. The following applies: isolate 2715.
Description: Antimicrobial activity against Pseudomonas aeruginosa isolate 2715 expressing inactivated mexB gene by disk diffusion method
Experiment [38] relates to Pseudomonas aeruginosa. The experiment can be described thus: microbe, parasite or virus in culture. The conditions noted are these: isolate 615R.
Description: Antimicrobial activity against Pseudomonas aeruginosa isolate 615R expressing inactivated mexB gene by disk diffusion method
The test system of experiment [39] is Pseudomonas aeruginosa. The experiment can be described thus: microbe, parasite or virus in culture. The conditions noted are these: isolate 2716.
Description: Antimicrobial activity against Pseudomonas aeruginosa isolate 2716 expressing inactivated mexB gene by disk diffusion method
Experiment [40] deals with Pseudomonas aeruginosa. Put plainly: Antimicrobial activity against Pseudomonas aeruginosa isolate 2933 expressing inactivated mexB gene by disk diffusion method. The class given is functional.

The source of these data is ChEMBL document CHEMBL1649198, “Efflux unbalance in Pseudomonas aeruginosa isolates from cystic fibrosis patients” (2009).

Values after ≈ are worked out from the molar mass of the structure shown.

On to `CO/N=C(\C(=O)N[C@@H]1C(=O)N2C(C(=O)[O-])=C(C[N+]3(C)CCCC3)CS[C@H]12)c1csc(N)n1`, for which the MIC was determined as 4 µg/mL (≈ 8.32 µM) in [1]; 16 µg/mL (≈ 33.3 µM) in [2]; 8 µg/mL (≈ 16.6 µM) in experiment [3]; 8 µg/mL (≈ 16.6 µM) in [4]; 8 µg/mL (≈ 16.6 µM) in experiment [5]; 8 µg/mL (≈ 16.6 µM) in experiment [6]. For the same compound, the MIC in experiment [7] stood at 32 µg/mL (≈ 66.6 µM); in experiment [8], 8 µg/mL (≈ 16.6 µM); in [9], 4 µg/mL (≈ 8.32 µM); in experiment [10] it was 32 µg/mL (≈ 66.6 µM); in [11], 8 µg/mL (≈ 16.6 µM); in [12], 16 µg/mL (≈ 33.3 µM). Also, the MIC in [13] came out at 8 µg/mL (≈ 16.6 µM); in [14], 16 µg/mL (≈ 33.3 µM); in experiment [15], 4 µg/mL (≈ 8.32 µM).

As to `O=C(O)c1cn(C2CC2)c2cc(N3CCNCC3)c(F)cc2c1=O` [CIPROFLOXACIN], the MIC in experiment [2] was 1 µg/mL (≈ 3.02 µM); in experiment [5], 1 µg/mL (≈ 3.02 µM); in experiment [16], 4 µg/mL (≈ 12.1 µM); in experiment [7], 16 µg/mL (≈ 48.3 µM); in experiment [8], 1 µg/mL (≈ 3.02 µM); in experiment [9] it was 1 µg/mL (≈ 3.02 µM). For the same compound, the MIC in experiment [10] is 16 µg/mL (≈ 48.3 µM); in experiment [11] it was 1 µg/mL (≈ 3.02 µM); in experiment [14] it was 1 µg/mL (≈ 3.02 µM).

Turning to `CO[C@@H]1[C@@H](OC(N)=O)[C@@H](O)[C@H](Oc2ccc3c(O)c(NC(=O)c4ccc(O)c(CC=C(C)C)c4)c(=O)oc3c2C)OC1(C)C` [NOVOBIOCIN], the MIC was determined as 64 µg/mL (≈ 104 µM) in experiment [1]; 4 µg/mL (≈ 6.53 µM) in [17]; 512 µg/mL (≈ 836 µM) in experiment [18]; 4 µg/mL (≈ 6.53 µM) in experiment [19]; 32 µg/mL (≈ 52.2 µM) in experiment [3]; 32 µg/mL (≈ 52.2 µM) in experiment [20]. Besides, the MIC in experiment [4] came out at 512 µg/mL (≈ 836 µM); in experiment [21], 32 µg/mL (≈ 52.2 µM); in experiment [22] it was 32 µg/mL (≈ 52.2 µM); in experiment [5], 32 µg/mL (≈ 52.2 µM); in [23], 32 µg/mL (≈ 52.2 µM); in [16], 64 µg/mL (≈ 104 µM). Also, the MIC in experiment [7] turned out to be 8 µg/mL (≈ 13.1 µM); in experiment [24] it was 8 µg/mL (≈ 13.1 µM); in [8], 32 µg/mL (≈ 52.2 µM); in [9] it was 4 µg/mL (≈ 6.53 µM); in experiment [25], 512 µg/mL (≈ 836 µM); in experiment [26], 16 µg/mL (≈ 26.1 µM). The MIC in experiment [10] stood at 32 µg/mL (≈ 52.2 µM); in experiment [28] it was 32 µg/mL (≈ 52.2 µM); in experiment [11], 32 µg/mL (≈ 52.2 µM); in experiment [12], 8 µg/mL (≈ 13.1 µM); in experiment [14] it was 16 µg/mL (≈ 26.1 µM); in experiment [29], 8 µg/mL (≈ 13.1 µM). For the same compound, the MIC in experiment [30] came out at 32 µg/mL (≈ 52.2 µM); in [15] it was 16 µg/mL (≈ 26.1 µM). Further, the “fold change (FC)” value in experiment [27] amounted to 16.

Regarding `C[C@H]1[C@H](NC(=O)/C(=N\OC(C)(C)C(=O)O)c2csc(N)n2)C(=O)N1S(=O)(=O)O` [AZTREONAM], the MIC is 0.25 µg/mL (≈ 0.574 µM) in experiment [1]; 0.12 µg/mL (≈ 0.276 µM) in experiment [31]; 0.25 µg/mL (≈ 0.574 µM) in experiment [3]; 0.12 µg/mL (≈ 0.276 µM) in experiment [21]; 0.25 µg/mL (≈ 0.574 µM) in [32]; 0.25 µg/mL (≈ 0.574 µM) in [5]. Besides, the MIC in [16] worked out at 0.12 µg/mL (≈ 0.276 µM); in experiment [7] it was 0.25 µg/mL (≈ 0.574 µM); in experiment [33], 0.25 µg/mL (≈ 0.574 µM); in experiment [8], 0.25 µg/mL (≈ 0.574 µM); in experiment [9], 0.25 µg/mL (≈ 0.574 µM); in experiment [34] it was 0.25 µg/mL (≈ 0.574 µM). For the same compound, the MIC in [10] stood at 0.25 µg/mL (≈ 0.574 µM); in experiment [35], 0.25 µg/mL (≈ 0.574 µM); in experiment [36] it was 0.12 µg/mL (≈ 0.276 µM); in experiment [37], 0.25 µg/mL (≈ 0.574 µM); in [11], 0.12 µg/mL (≈ 0.276 µM); in [38] it was 0.25 µg/mL (≈ 0.574 µM). Also, the MIC in experiment [12] worked out at 0.25 µg/mL (≈ 0.574 µM); in [14], 0.5 µg/mL (≈ 1.15 µM); in experiment [39], 0.25 µg/mL (≈ 0.574 µM); in experiment [40] it was 0.12 µg/mL (≈ 0.276 µM); in experiment [15], 0.25 µg/mL (≈ 0.574 µM).

Turning to `CC(C)(O/N=C(\C(=O)N[C@@H]1C(=O)N2C(C(=O)[O-])=C(C[n+]3ccccc3)CS[C@H]12)c1csc(N)n1)C(=O)O` [CEFTAZIDIME], the MIC was 4 µg/mL (≈ 7.32 µM) in experiment [1]; 2 µg/mL (≈ 3.66 µM) in experiment [7]; 0.5 µg/mL (≈ 0.915 µM) in [8]; more than 8 µg/mL in experiment [10]; 0.5 µg/mL (≈ 0.915 µM) in experiment [11]; 0.5 µg/mL (≈ 0.915 µM) in experiment [12].
